ChEMBL document CHEMBL1123898, “Antitumor imidazotetrazines. 14. Synthesis and antitumor activity of 6- and 8-substituted imidazo[5,1-d]-1,2,3,5-tetrazinones and 8-substituted pyrazolo[5,1-d]-1,2,3,5-tetrazinones” (1987)

Tests used:
Type in all cases: functional
[1] = system: L1210; assay: Antitumor activity was assessed against L1210 tumors in B6D2F1 mouse by inoculation of 10e5 tumor cells through iv route and number of Survivors to duration was reported at 20 mg/kg peroral dose; 6/7; conditions: route oral
[2] = system: L1210; assay: Antitumor activity was assessed against L1210 tumors in B6D2F1 mouse by inoculation of 10e5 tumor cells through iv route and number of Survivors to duration was reported at 10 mg/kg peroral dose; 1/7; conditions: route oral
[3] = system: L1210; assay: Antitumor activity was assessed against L1210 tumors in B6D2F1 mouse by inoculation of 10e5 tumor cells through iv route and mean death of animals (treated/control) was reported at 10 mg/kg peroral dose; conditions: route oral
[4] = Antitumor activity was assessed against TLX5 tumors in CBA/CA mouse by inoculation of 2 x 10e5 tumor cells through sc route and mean death of animals (treated/control) was reported at 20 mg/kg dose; conditions: route subcutaneous
[5] = Antitumor activity was assessed against TLX5 tumors in CBA/CA mouse by inoculation of 2 x 10e5 tumor cells through sc route and mean death of animals (treated/control) was reported at 10 mg/kg dose; conditions: route subcutaneous
[6] = Antitumor activity was assessed against TLX5 tumors in CBA/CA mouse by inoculation of 2 x 10e5 tumor cells through sc route and number of Survivors to duration was reported at 20 mg/kg ip dose; 5/5; conditions: route subcutaneous
[7] = system: L1210; assay: Antitumor activity was assessed against L1210 tumors in B6D2F1 mouse by inoculation of 10e5 tumor cells through iv route and mean death of animals (treated/control) was reported at 20 mg/kg peroral dose; conditions: route oral
[8] = system: L1210; assay: Antitumor activity was assessed against L1210 tumors in B6D2F1 mouse by inoculation of 10e5 tumor cells through iv route and mean death of animals (treated/control) was reported at 5 mg/kg peroral dose; conditions: route oral
[9] = Antitumor activity was assessed against TLX5 tumors in CBA/CA mouse by inoculation of 2 x 10e5 tumor cells through sc route and mean death of animals (treated/control) was reported at 40 mg/kg dose; conditions: route subcutaneous
[10] = system: L1210; assay: Antitumor activity was assessed against L1210 tumors in B6D2F1 mouse by inoculation of 10e5 tumor cells through iv route and mean death of animals (treated/control) was reported at 2.5 mg/kg peroral dose; conditions: route oral
[11] = Antitumor activity was assessed against TLX5 tumors in CBA/CA mouse by inoculation of 2 x 10e5 tumor cells through sc route and mean death of animals (treated/control) was reported at 5 mg/kg dose; conditions: route subcutaneous
[12] = system: L1210; assay: Antitumor activity was assessed against L1210 tumors in B6D2F1 mouse by inoculation of 10e5 tumor cells through intravenous route and mean death of animals (treated/control) was reported at 160 mg/kg peroral dose; conditions: route oral
[13] = system: L1210; assay: Antitumor activity was assessed against L1210 tumors in B6D2F1 mouse by inoculation of 10e5 tumor cells through intravenous route and mean death of animals (treated/control) was reported at 40 mg/kg peroral dose; conditions: route oral
[14] = system: L1210; assay: Antitumor activity was assessed against L1210 tumors in B6D2F1 mouse by inoculation of 10e5 tumor cells through intravenous route and mean death of animals (treated/control) was reported at 80 mg/kg peroral dose; conditions: route oral
[15] = system: L1210; assay: Antitumor activity was assessed against L1210 tumors in B6D2F1 mouse by inoculation of 10e5 tumor cells through intravenous route and mean death of animals (treated/control) was reported at 20 mg/kg peroral dose; conditions: route oral
[16] = system: L1210; assay: Antitumor activity was assessed against L1210 tumors in B6D2F1 mouse by inoculation of 10e5 tumor cells through intravenous route and mean death of animals (treated/control) was reported at 10 mg/kg peroral dose; conditions: route oral
[17] = system: L1210; assay: Antitumor activity was assessed against L1210 tumors in B6D2F1 mouse by inoculation of 10e5 tumor cells through intravenous route and number of Survivors to duration was reported at 40 mg/kg peroral dose; 5/7; conditions: route oral
[18] = Antitumor activity was assessed against TLX5 tumors in CBA/CA mouse by inoculation of 2 x 10e5 tumor cells through sc route and mean death of animals (treated/control) was reported at 320 mg/kg ip dose; conditions: route subcutaneous
[19] = system: L1210; assay: Antitumor activity was assessed against L1210 tumors in B6D2F1 mouse by inoculation of 10e5 tumor cells through iv route and number of Survivors to duration was reported at 200 mg/kg po dose; 10/10
[20] = system: L1210; assay: Antitumor activity was assessed against L1210 tumors in B6D2F1 mouse by inoculation of 10e5 tumor cells through iv route and mean death of animals (treated/control) was reported at 200 mg/kg po dose
[21] = system: L1210; assay: Antitumor activity was assessed against L1210 tumors in B6D2F1 mouse by inoculation of 10e5 tumor cells through iv route and mean death of animals (treated/control) was reported at 100 mg/kg po dose
[22] = Antitumor activity was assessed against TLX5 tumors in CBA/CA mouse by inoculation of 2 x 10e5 tumor cells through sc route and mean death of animals (treated/control) was reported at 80 mg/kg ip dose; conditions: route subcutaneous
[23] = system: L1210; assay: Antitumor activity was assessed against L1210 tumors in B6D2F1 mouse by inoculation of 10e5 tumor cells through iv route and mean death of animals (treated/control) was reported at 50 mg/kg po dose
[24] = Antitumor activity was assessed against TLX5 tumors in CBA/CA mouse by inoculation of 2 x 10e5 tumor cells through sc route and number of Survivors to duration was reported at 160 mg/kg ip dose; 1/5; conditions: route subcutaneous
[25] = Antitumor activity was assessed against TLX5 tumors in CBA/CA mouse by inoculation of 2 x 10e5 tumor cells through sc route and mean death of animals (treated/control) was reported at 40 mg/kg ip dose; conditions: route subcutaneous
[26] = Antitumor activity was assessed against TLX5 tumors in CBA/CA mouse by inoculation of 2 x 10e5 tumor cells through sc route and mean death of animals (treated/control) was reported at 160 mg/kg ip dose; conditions: route subcutaneous
[27] = system: L1210; assay: Antitumor activity was assessed against L1210 tumors in B6D2F1 mouse by inoculation of 10e5 tumor cells through iv route and number of Survivors to duration was reported at 200 mg/kg po dose; 1/7
[28] = Antitumor activity was assessed against TLX5 tumors in CBA/CA mouse by inoculation of 2 x 10e5 tumor cells through sc route and mean death of animals (treated/control) was reported at 20 mg/kg ip dose; conditions: route subcutaneous
[29] = Antitumor activity was assessed against TLX5 tumors in CBA/CA mouse by inoculation of 2 x 10e5 tumor cells through sc route and mean death of animals (treated/control) was reported at 10 mg/kg ip dose; conditions: route subcutaneous
[30] = system: L1210; assay: Antitumor activity was assessed against L1210 tumors in B6D2F1 mouse by inoculation of 10e5 tumor cells through iv route and number of Survivors to duration was reported at 100 mg/kg po dose; 5/7
[31] = system: L1210; assay: Antitumor activity was assessed against L1210 tumors in B6D2F1 mouse by inoculation of 10e5 tumor cells through iv route and mean death of animals (treated/control) was reported at 25 mg/kg po dose
[32] = Antitumor activity was assessed against TLX5 tumors in CBA/CA mouse by inoculation of 2 x 10e5 tumor cells through subcutaneous route and mean death of animals (treated/control) was reported at 20 mg/kg dose
[33] = Antitumor activity was assessed against TLX5 tumors in CBA/CA mouse by inoculation of 2 x 10e5 tumor cells through sc route and number of Survivors to duration was reported at 20 mg/kg ip dose; 1/5; conditions: route subcutaneous
[34] = Antitumor activity was assessed against TLX5 tumors in CBA/CA mouse by inoculation of 2 x 10e5 tumor cells through subcutaneous route and mean death of animals (treated/control) was reported at 80 mg/kg dose
[35] = system: L1210; assay: (§1) Antitumor activity was assessed against L1210 tumors in B6D2F1 mouse by inoculation of 10e5 tumor cells through intravenous route and mean death of animals (treated/control) was reported at 50 mg/kg peroral dose; conditions: route oral
[36] = system: L1210; assay: Antitumor activity was assessed against L1210 tumors in B6D2F1 mouse by inoculation of 10e5 tumor cells through iv route and number of Survivors to duration was reported at 40 mg/kg peroral dose; 2/7; conditions: route oral
[37] = Antitumor activity was assessed against TLX5 tumors in CBA/CA mouse by inoculation of 2 x 10e5 tumor cells through subcutaneous route and mean death of animals (treated/control) was reported at 40 mg/kg dose
[38] = Antitumor activity was assessed against TLX5 tumors in CBA/CA mouse by inoculation of 2 x 10e5 tumor cells through subcutaneous route and mean death of animals (treated/control) was reported at 160 mg/kg dose
[39] = Antitumor activity was assessed against TLX5 tumors in CBA/CA mouse by inoculation of 2 x 10e5 tumor cells through subcutaneous route and mean death of animals (treated/control) was reported at 320 mg/kg dose
[40] = Antitumor activity was assessed against L1210 tumors in B6D2F1 mouse by inoculation of 10e5 tumor cells through intravenous route and mean death of animals (treated/control) was reported at 100 mg/kg peroral dose; conditions: route oral
[41] = as §1; conditions: route oral
[42] = Antitumor activity was assessed against L1210 tumors in B6D2F1 mouse by inoculation of 10e5 tumor cells through intravenous route and mean death of animals (treated/control) was reported at 200 mg/kg peroral dose; conditions: route oral
[43] = Antitumor activity was assessed against TLX5 tumors in CBA/CA mouse by inoculation of 2 x 10e5 tumor cells through subcutaneous route and number of Survivors to duration was reported at 20 mg/kg ip dose; 3/5
[44] = Antitumor activity was assessed against TLX5 tumors in CBA/CA mouse by inoculation of 2 x 10e5 tumor cells through subcutaneous route and number of Survivors to duration was reported at 40 mg/kg ip dose; 1/5
[45] = system: L1210; assay: Antitumor activity was assessed against L1210 tumors in B6D2F1 mouse by inoculation of 10e5 tumor cells through intravenous route and number of Survivors to duration was reported at 20 mg/kg peroral dose; 6/7; conditions: route oral
[46] = Antitumor activity was assessed against TLX5 tumors in CBA/CA mouse by inoculation of 2 x 10e5 tumor cells through subcutaneous route and number of Survivors to duration was reported at 40 mg/kg ip dose; 4/5
[47] = Antitumor activity was assessed against TLX5 tumors in CBA/CA mouse by inoculation of 2 x 10e5 tumor cells through subcutaneous route and mean death of animals (treated/control) was reported at 20 mg/kg ip dose
[48] = system: L1210; assay: Antitumor activity was assessed against L1210 tumors in B6D2F1 mouse by inoculation of 10e5 tumor cells through intravenous route and number of Survivors to duration was reported at 40 mg/kg peroral dose; 1/7; conditions: route oral
[49] = Antitumor activity was assessed against TLX5 tumors in CBA/CA mouse by inoculation of 2 x 10e5 tumor cells through subcutaneous route and mean death of animals (treated/control) was reported at 10 mg/kg ip dose
[50] = Antitumor activity was assessed against TLX5 tumors in CBA/CA mouse by inoculation of 2 x 10e5 tumor cells through subcutaneous route and mean death of animals (treated/control) was reported at 40 mg/kg ip dose
[51] = system: L1210; assay: Antitumor activity was assessed against L1210 tumors in B6D2F1 mouse by inoculation of 10e5 tumor cells through intravenous route and mean death of animals (treated/control) was reported at 5 mg/kg peroral dose; conditions: route oral
[52] = Antitumor activity was assessed against TLX5 tumors in CBA/CA mouse by inoculation of 2 x 10e5 tumor cells through subcutaneous route and mean death of animals (treated/control) was reported at 5 mg/kg ip dose

## NS(=O)(=O)c1ncn2c(=O)n(CCCl)nnc12
[1]
  Survivors: 6
[2]
  Survivors: 1
[3]
  T/C: >376%
[4]
  T/C: >476%
[5]
  T/C: 160%
[6]
  Survivors: 5
[7]
  T/C: >605%
[8]
  T/C: 207%
[9]
  T/C: 119%
[10]
  T/C: 136%
[11]
  T/C: 121%

## O=C(NCc1ccccc1)c1ncn2c(=O)n(CCCl)nnc12
[12]
  T/C: 183%
[13]
  T/C: 100%
[14]
  T/C: 130%

## CS(=O)(=O)c1cnn2c(=O)n(CCCl)nnc12
[15]
  T/C: 307%
[13]
  T/C: >447%
[16]
  T/C: 155%
[17]
  Survivors: 5

## CN(C)C(=O)c1cnn2c(=O)n(CCCl)nnc12
[18]
  T/C: 48%
[19]
  Survivors: 10
[20]
  T/C: >600%
[21]
  T/C: 250%
[22]
  T/C: 131%
[23]
  T/C: 144%
[24]
  Survivors: 1
[25]
  T/C: 109%
[26]
  T/C: >248%

## NC(=O)c1cnn2c(=O)n(CCCl)nnc12
[20]
  T/C: 363%
[27]
  Survivors: 1
[21]
  T/C: >530%
[28]
  T/C: 123%
[29]
  T/C: 98%
[30]
  Survivors: 5
[22]
  T/C: 143%
[23]
  T/C: 186%
[31]
  T/C: 120%
[25]
  T/C: 116%
[26]
  T/C: 221%

## CS(=O)(=O)c1ncn2c(=O)n(CCCl)nnc12
[32]
  T/C: >214%
[33]
  Survivors: 1
[15]
  T/C: 257%
[13]
  T/C: >310%
[34]
  T/C: 66%
[35]
  T/C: 217%
[36]
  Survivors: 2
[16]
  T/C: 217%
[37]
  T/C: 66%

## O=C(Nc1ccccc1)c1ncn2c(=O)n(CCCl)nnc12
[32]
  T/C: 98%
[34]
  T/C: 100%
[38]
  T/C: 98%
[39]
  T/C: 98%
[37]
  T/C: 103%

## NC(=O)c1nc(CCc2ccccc2)n2c(=O)n(CCCl)nnc12
[40]
  T/C: 100%
[41]
  T/C: 100%
[42]
  T/C: 100%

## CNS(=O)(=O)c1ncn2c(=O)n(CCCl)nnc12
[32]
  T/C: >375%
[43]
  Survivors: 3
[15]
  T/C: >666%
[13]
  T/C: 25%
[44]
  Survivors: 1
[34]
  T/C: 68%
[16]
  T/C: 283%
[45]
  Survivors: 6
[37]
  T/C: >203%

## NC(=O)c1ncn2c(=O)n(CCCl)nnc12 [MITOZOLOMIDE]
[46]
  Survivors: 4
[47]
  T/C: 167%
[15]
  T/C: 217%
[13]
  T/C: >330%
[48]
  Survivors: 1
[49]
  T/C: 163%
[16]
  T/C: 178%
[50]
  T/C: >458%
[51]
  T/C: 133%
[52]
  T/C: 113%
